# Where “and” joins values, the source holds several entries; their conditions need not be identical. Equal entries are not always repeated. Where two headings read alike, the source gives them in different places.
# Key:
# RAW cells = assay: Imaging of endogenous H2O2 upon ionomycin stimulation in RAW cells; assay type: cell-based; settings: 5 μM probe
# From the text: After detecting exogenously added H2O2 in cells, the focus shifted to more biologically relevant, endogenous H2O2. It was attempted to monitor endogenous H2O2 production upon stimulation with ionomycin in RAW cells. […] In contrast, with probe 1, a significant response was observed within 30 s after the addition of ionomycin relative to the baseline fluorescence (FIG. 24B-C) and peaked at 48 s.
# [1] = Fluorescence intensity of selenide 1 and phenol 5; assay type: physicochemical; settings: pH 7
# Protocol: All fluorescence measurements (excitation 490 nm, emission 510-570 nm) were carried out using a Promega Biosystems Modulus II Microplate Reader or a HoribaMax Fluorometer unless otherwise stated. Data analysis was performed using GraphPad Prism 8.
# The fluorescence intensity of selenide 1 and phenol 5 were investigated. Solutions containing ultrapure water (681 μL), […] phosphate pH 7 buffer (31 μL), DMSO (28.1 μL), and 80 μM 1 or phenol 5 in DMSO (9.4 μL) were made. Aliquots of these solutions (200 μL) were transferred to the wells of a black 96-well plate and the fluorescence was measured. As evident from FIG. 10 and Table 1, the difference in fluorescence intensity of probe 1 and phenol 5, is 27-fold. Generally, O-alkylation of Pittsburgh Green suppresses the fluorescence by 200-400 fold. The somewhat modest fluorescence increase in the current system is attributed to the trace contamination of the fluorescent compound 5 during the purification of the nonfluorescent probe 1.
# [2] = 100 nM in water
# Protocol: The pH dependence of phenol 5 was also investigated. Phenol 5 was dissolved in water to a concentration of 100 nM. This solution (100 mL) was titrated with HCl and NaOH. The pH was measured after each addition before measuring the fluorescence using a Horiba FluoroMax3 fluorescence spectrometer. Fluorescence was measured using 1 nm slit widths with an excitation wavelength of 496 nm and an emission wavelength of 510 nm, the results of which are shown in FIG. 23 and Table 15.
structure (smiles),measurement,setting,value
"CC(=O)Oc1cc2c(cc1Cl)C(c1ccccc1C(=O)O)c1cc(Cl)c(OC(C)=O)cc1O2 [dihydrodichlorofluorescein acetate, reference compound]",fluorescence response upon ionomycin addition,RAW cells,fluorescence increase could hardly be observed
O=c1ccc2c(-c3ccccc3CO)c3ccc(O)cc3oc-2c1 [Compound 5],Fluorescence Intensity,[1],"244,687 and 247,204 and 246,848"
same,Fluorescence Intensity,[2]; pH 3.99,920
same,Fluorescence Intensity,[2]; pH 4.20,930
same,Fluorescence Intensity,[2]; pH 4.33,"1,070"
same,Fluorescence Intensity,[2]; pH 4.48,"1,450"
same,Fluorescence Intensity,[2]; pH 4.65,"1,440"
same,Fluorescence Intensity,[2]; pH 4.77,"1,670"
same,Fluorescence Intensity,[2]; pH 5.07,"2,790"
same,Fluorescence Intensity,[2]; pH 5.51,"5,280"
same,Fluorescence Intensity,[2]; pH 5.69,"7,130"
same,Fluorescence Intensity,[2]; pH 5.90,"10,250"
same,Fluorescence Intensity,[2]; pH 6.30,"18,790"
same,Fluorescence Intensity,[2]; pH 6.38,"18,720"
same,Fluorescence Intensity,[2]; pH 6.48,"22,820"
same,Fluorescence Intensity,[2]; pH 6.80,"27,620"
same,Fluorescence Intensity,[2]; pH 6.90,"31,730"
same,Fluorescence Intensity,[2]; pH 7.11,"34,510"
same,Fluorescence Intensity,[2]; pH 7.18,"35,740"
same,Fluorescence Intensity,[2]; pH 7.69,"39,880"
same,Fluorescence Intensity,[2]; pH 8.31,"41,950"
same,Fluorescence Intensity,[2]; pH 8.63,"42,930"
same,Fluorescence Intensity,[2]; pH 8.88,"44,240"
same,Fluorescence Intensity,[2]; pH 9.00,"43,280"
same,Fluorescence Intensity,[2]; pH 9.09,"43,110"
same,Fluorescence Intensity,[2]; pH 9.15,"43,140"
same,Fluorescence Intensity,[2]; pH 9.32,"43,550"
same,Fluorescence Intensity,[2]; pH 9.40,"43,850"
same,Fluorescence Intensity,[2]; pH 9.49,"43,340"
same,Fluorescence Intensity,[2]; pH 9.56,"45,080"
same,Fluorescence Intensity,[2]; pH 9.61,"44,640"
same,Fluorescence Intensity,[2]; pH 9.71,"43,930"
same,Fluorescence Intensity,[2]; pH 9.75,"42,610"
same,Fluorescence Intensity,[2]; pH 9.83,"44,070"
same,Fluorescence Intensity,[2]; pH 9.92,"43,670"
same,Fluorescence Intensity,[2]; pH 10.01,"41,900"
same,Fluorescence Intensity,[2]; pH 10.10,"42,170"
same,Fluorescence Intensity,[2]; pH 10.22,"42,800"
same,Fluorescence Intensity,[2]; pH 10.33,"42,170"
same,Fluorescence Intensity,[2]; pH 10.43,"42,570"
same,Fluorescence Intensity,[2]; pH 10.48,"42,410"
same,Fluorescence Intensity,[2]; pH 10.59,"40,450"
same,Fluorescence Intensity,[2]; pH 10.68,"41,370"
same,Fluorescence Intensity,[2]; pH 10.75,"40,520"
same,Fluorescence Intensity,[2]; pH 10.85,"40,140"
same,Fluorescence Intensity,[2]; pH 10.91,"38,790"

# From patent publication US12540150B1, “Fluorogenic probe using a Mislow-Evans rearrangement for real-time imaging of hydrogen peroxide” (University of Pittsburgh—Of the Commonwealth System of …, priority 2020, dated 2026)
